The subject of one assay is Kidney. In words: Induction of heme alkylation in Plasmodium vinckei petteri-infected Swiss albino mice (Mus musculus) kidney assessed as heme-drug adduct at 100 mg/kg, perorally administered as single dose measured by liquid chromatography-mass spectrometry method. Format: functional, organism-based. The arrangement: dose 100 mg/kg.
The test system of a further assay is Spleen. In words: Induction of heme alkylation in Plasmodium vinckei petteri-infected Swiss albino mice (Mus musculus) spleen assessed as covalent heme-drug adduct formation at 100 mg/kg, perorally administered as single dose measured by liquid chromatography-mass spectrometry method. Format: functional, organism-based. The arrangement: dose 100 mg/kg.

Active and inactive are the calls of the source. The calls are words filed in the database; no cut-off is given here.

As for `CC(C)C1=C[C@H]2OC3(CCC(NCCNc4ccnc5cc(Cl)ccc45)CC3)OO[C@@]2(C)CC1` (some centres not stated), in the assay with Kidney, the result was inactive. In addition, the outcome in the assay with Spleen was Active.

The values above are taken from ChEMBL document CHEMBL1275485, “The antimalarial trioxaquine DU1301 alkylates heme in malaria-infected mice” (Antimicrob Agents Chemother, 2008).
